Assay results: US9757477B2, “Imaging brown adipose tissue with curcumin derivatives” (The General Hospital Corporation, priority 2013, dated 2017)

Experiments:
brown adipose cells = test: Ex vivo histology of dissected BAT slices; parameters: species or system mice; conditions: fluorescence microscopy
Procedure: Next the time course of CRANAD-2 and CRANAD-3 accumulation in BAT area was investigated. […] Similarly, the signal of CRANAD-3 reached the uptake peak around one hour, and then gradually washed out (FIG. 8c-d). Accumulation of CRANAD-2 and -3 in BAT was further confirmed with ex vivo histology of the dissected BAT slices, performed as follows. The dissected BAT was fixed with 4% formalin at 4° C. overnight, and then embedded into OCT. BAT tissue was cut into 7 micron thickness slices, washed with PBS buffer, and co-stained with DAPI (Vectra Shield, Vector Lab, Burlingame, Calif.). Images were acquired with fast exposure to capture the dye signal in the oil droplets. To outline cell membrane cell autofluorescence was captured with long exposure after image of the dye signal from oil droplets was already acquired. To further validate the capacity of CRANAD-29 for BAT labeling, ex vivo histological microscopic imaging with CRANAD-29 was conducted. […] Gold standard H&E staining also provided similar images (FIG. 10a). […] The injection dose of CRANAD-29 was optimized, and the fluorescence signal reached its plateau at 0.4 mg/kg (FIG. 11). In the following studies, 0.1 mg/kg dose was used.

[1] = test system: BAT cells induced from wild-type brown preadipocytes; test: In vitro staining of BMPs-induced BAT cells (live cell confocal); assay type: cell-based; conditions: live cell confocal images
interscapular BAT [2] = test: Monitoring interscapular BAT mass change in STZ-induced diabetic mice; assay type: in vivo, Balb/c mice
Procedure: Monitoring was performed as follows. Two-month old Balb/c mice (n=5) were injected with STZ (80 mg/kg) for 7 days. When blood glucose levels reached 250 mg/dL on two consecutive days, mice were subjected to NIR imaging with CRANAD-29. Before imaging, the fur around the interscapular area was removed. Images were acquired at pre-injection, as well as 2- and 4-hours after i.v. injection. After imaging, mice were sacrificed, BAT from both groups was dissected, and weighted, and the linear correlation was established between in vivo fluorescence signal and weight of the dissected BATs. The same imaging procedure was conducted with the control group injected with the same volume of saline for 7 days (n=5).

interscapular BAT [3] = test: Monitoring BAT activation under cold exposure; assay type: in vivo, balb/c mice; conditions: 4° C. cold exposure
Procedure: BAT could be activated under various conditions including cold exposure. In this report, whether CRANAD-29 could be used to monitor BAT activation under these conditions was investigated as follows. Two-month old balb/c mice (n=5) were placed in a 4° C. cold room for 2 hours before i.v. injection of CRANAD-29. Images were acquired at 1-, 2-, 4-hours after probe injection, and mice were placed in the cold room between imaging sessions. Control mice (n=5) were placed in a 25° C. room. Images were captured at the same time points after CRANAD-29 injection.

inguinal sWAT = test: Monitoring browning of subcutaneous WAT after CL 316,243 treatment; assay type: in vivo, C57BL6 mice; conditions: after 12 days CL 316,243 1.0 mg/kg i.p.
Procedure: Two-month old C57BL6 mice (n=5) were i.p. injected CL 316,243 (100 uL, 1.0 mg/kg) for 12 days, and the control mice (n=5) were i.p. injected with saline. On the 13th day, both groups were imaged after i.v. injection of CRANAD-29. Images were acquired at 1-, 2-, 4-hours after the probe injection. After the last imaging session, inguinal sWAT were dissected after scarification of the mice, and the dissected sWAT tissue was subjected to qPCR for UCP-1 expression and H&E staining

Row | SMILES | labeling in ex vivo histology of BAT slices (brown adipose cells) | staining of oil droplets in BAT cells [1] | fluorescence signal from diabetic mice vs control group (interscapular BAT [2]; STZ 80 mg/kg for 7 days, CRANAD-29 i.v.) | correlation between BAT mass and fluorescence signal (interscapular BAT [2]; STZ-treated and normal animals) | signal of cold-exposed animals vs control group (interscapular BAT [3]; 1 hour after probe injection) [fold] | signal of cold-exposed animals vs control group (interscapular BAT [3]; 2 hours after probe injection) [fold] | signal of cold-exposed animals vs control group (interscapular BAT [3]; 4 hours after probe injection) [fold] | CRANAD-29 signal around inguinal subcutaneous WAT, treated vs control group (inguinal sWAT) | fluorescent signal from interscapular BAT area, treated vs control group (inguinal sWAT)
1 | CN(C)c1ccc(/C=C/C2=CC(=C/C=C3C=CC(=[N+](C)C)C=C3)/O[B-](F)(F)O2)cc1 [CRANAD-2] | labeled oil droplets in brown adipose cells | able to clearly label oil droplets in BAT cells | – | – | – | – | – | – | –
2 | F[B-]1(F)OC(/C=C/c2cc3c4c(c2)CCCN4CCC3)=CC(/C=C/c2cc3c4c(c2)CCCN4CCC3)=[O+]1 [CRANAD-29] | capable of labeling BAT cells | – | significantly lower | excellent direct correlation | 1.65 | 1.59 | 1.53 | significantly higher | higher fluorescent signal
